Data from ChEMBL document CHEMBL1201862, “PubChem BioAssay data set” (2004).
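A five-concentration, 48-hour dose response in 96-well plates underlies each endpoint, interpolated linearly between surrounding concentrations. The concentration for 50% growth inhibition is given as GI50.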 The source made the active and inactive calls. No stated cut-off is given here; in the data, active = GI50 up to about 1.1 µM and inactive = higher.

Columns and labels:
Assay in all cases: inhibition of tumour cell growth, NCI panel, 48 h
[1] = test system: OVCAR-8
[2] = test system: TK-10
[3] = test system: SN12C
[4] = test system: KM12
[5] = test system: UACC-257
[6] = test system: HL-60
[7] = test system: K562
[8] = test system: RXF 393
[9] = test system: UACC-62
[10] = test system: NCI-H460
[11] = test system: MCF7
[12] = test system: Malme-3M
[13] = test system: SNB-75
[14] = test system: MDA-MB-435
[15] = test system: SF-295
[16] = test system: CAKI-1
[17] = test system: MDA-MB-231
[18] = test system: A498
[19] = test system: Hs-578T
[20] = test system: SW-620

Structure (SMILES) | GI50 [1] | GI50 [2] | GI50 [3] | GI50 [4] | GI50 [5] | GI50 [6] | GI50 [7] | GI50 [8] | GI50 [9] | GI50 [10] | GI50 [11] | GI50 [12] | GI50 [13] | GI50 [14] | GI50 [15] | GI50 [16] | GI50 [17] | GI50 [18] | GI50 [19] | GI50 [20]
c1ccc2c3ccn4ccc5c6ccccc6[nH]c5c4c-3nc2c1 | 0.246 µM (active) | 2.62 µM (inactive) | 0.735 µM (active) | 0.908 µM (active) | 2 µM (inactive) | 0.935 µM (active) | 0.201 µM (active) | 1.32 µM (inactive) | 1.77 µM (inactive) | 0.498 µM (active) | 0.331 µM (active) | 1.65 µM (inactive) | 1.57 µM (inactive) | 1.45 µM (inactive) | 1.46 µM (inactive) | 1.42 µM (inactive) | 0.329 µM (active) | 1.63 µM (inactive) | 1.6 µM (inactive) | 0.169 µM (active)
Oc1c(Br)c(-c2ccccc2)nc2ccccc12 | – | 57.8 µM (inactive) | 6.67 µM (inactive) | 1.18 µM (inactive) | 36.7 µM (inactive) | 12.2 µM (inactive) | 1.9 µM (inactive) | 63.1 µM (inactive) | 21.9 µM (inactive) | 10 µM (inactive) | 59.2 µM (inactive) | 53.2 µM (inactive) | 8.15 µM (inactive) | 43.3 µM (inactive) | 8.75 µM (inactive) | 6.32 µM (inactive) | 2.87 µM (inactive) | 5.35 µM (inactive) | > 89.1 µM (inactive) | 97.5 µM (inactive)
CC#CC#C/C=C1/O[C@]2(CCC(OC(=O)CC(C)C)CO2)[C@@H]2O[C@H]12 (some centres not stated) | 32.4 µM (inactive) | 25.7 µM (inactive) | 22.2 µM (inactive) | 27 µM (inactive) | 30.3 µM (inactive) | 19.7 µM (inactive) | 31.3 µM (inactive) | 21.7 µM (inactive) | 23.3 µM (inactive) | 36.1 µM (inactive) | 33 µM (inactive) | 21.8 µM (inactive) | 78.5 µM (inactive) | 21.1 µM (inactive) | – | 18.2 µM (inactive) | 24 µM (inactive) | > 100 µM (inactive) | 52.5 µM (inactive) | 19.2 µM (inactive)
CC1=C(C(=O)N[C@@H](Cc2ccccc2)C(=O)O)N2C(=O)[C@@H](NC(=O)[C@@H](N)CC(C)C)[C@H]2SC1 | > 100 µM (inactive) | > 100 µM (inactive) | > 100 µM (inactive) | > 100 µM (inactive) | > 100 µM (inactive) | > 100 µM (inactive) | > 100 µM (inactive) | > 100 µM (inactive) | > 100 µM (inactive) | > 100 µM (inactive) | > 100 µM (inactive) | > 100 µM (inactive) | > 100 µM (inactive) | > 100 µM (inactive) | > 100 µM (inactive) | > 100 µM (inactive) | > 100 µM (inactive) | > 100 µM (inactive) | > 100 µM (inactive) | > 100 µM (inactive)
CC(C)=CCC[C@@H](C)C1=C(O)C(=O)C(C)=C(Nc2ccccc2F)C1=O | 7.19 µM (inactive) | 29.9 µM (inactive) | 15 µM (inactive) | 15.5 µM (inactive) | 21.9 µM (inactive) | 2.28 µM (inactive) | 9.62 µM (inactive) | 12.7 µM (inactive) | 12.1 µM (inactive) | 12 µM (inactive) | 24.8 µM (inactive) | 10.2 µM (inactive) | 22.1 µM (inactive) | 36.7 µM (inactive) | 3.82 µM (inactive) | 16.1 µM (inactive) | 28.4 µM (inactive) | 16.6 µM (inactive) | 9.62 µM (inactive) | 23.8 µM (inactive)
Cc1ccc(C(=O)CC(Cl)=C(Cl)Cl)cc1 | > 100 µM (inactive) | > 100 µM (inactive) | – | > 100 µM (inactive) | 65.9 µM (inactive) | 54 µM (inactive) | 41.6 µM (inactive) | 78.5 µM (inactive) | > 100 µM (inactive) | > 100 µM (inactive) | > 100 µM (inactive) | > 100 µM (inactive) | > 100 µM (inactive) | 55.7 µM (inactive) | 25.6 µM (inactive) | 38.8 µM (inactive) | 98.2 µM (inactive) | > 100 µM (inactive) | > 100 µM (inactive) | > 100 µM (inactive)
COC(=O)c1n[nH]c(C)c1/N=N/N(C)CCC#N | 14.4 µM (inactive) | 20.9 µM (inactive) | 16.5 µM (inactive) | 14.8 µM (inactive) | 50.7 µM (inactive) | 27.5 µM (inactive) | 15.3 µM (inactive) | 13.3 µM (inactive) | 15.7 µM (inactive) | 14.2 µM (inactive) | 7.14 µM (inactive) | 15.2 µM (inactive) | 13.4 µM (inactive) | 59.8 µM (inactive) | 24.9 µM (inactive) | 11.3 µM (inactive) | 24.8 µM (inactive) | 76 µM (inactive) | 20.8 µM (inactive) | 14 µM (inactive)
Cc1c(-c2ccccc2)c(C#N)c2nnn(C)c(=O)n12 | > 100 µM (inactive) | > 100 µM (inactive) | > 100 µM (inactive) | > 100 µM (inactive) | > 100 µM (inactive) | > 100 µM (inactive) | > 100 µM (inactive) | 57.1 µM (inactive) | > 100 µM (inactive) | > 100 µM (inactive) | > 100 µM (inactive) | > 100 µM (inactive) | 42.8 µM (inactive) | > 100 µM (inactive) | 68.9 µM (inactive) | > 100 µM (inactive) | > 100 µM (inactive) | 91.6 µM (inactive) | > 100 µM (inactive) | > 100 µM (inactive)
O=C(N/C=C1\C(=O)Oc2ccccc2C1=O)Oc1ccccc1 | 25.8 µM (inactive) | 22.9 µM (inactive) | 18.6 µM (inactive) | 35.6 µM (inactive) | 31 µM (inactive) | 29.9 µM (inactive) | 55.3 µM (inactive) | 8.59 µM (inactive) | 20 µM (inactive) | 33.9 µM (inactive) | 35.1 µM (inactive) | 19.1 µM (inactive) | 14.3 µM (inactive) | 20.1 µM (inactive) | 30.5 µM (inactive) | 21.6 µM (inactive) | 16.7 µM (inactive) | 15.2 µM (inactive) | 9.64 µM (inactive) | 30.8 µM (inactive)
C/C(=N\Nc1ncnc2ccccc12)c1ccccn1 | < 0.01 µM (active) | 0.157 µM (active) | 0.026 µM (active) | 0.0561 µM (active) | < 0.0161 µM (active) | < 0.01 µM (active) | < 0.0106 µM (active) | 0.0371 µM (active) | 0.0948 µM (active) | 0.0294 µM (active) | 0.0138 µM (active) | < 0.0315 µM (active) | 1.81 µM (inactive) | 0.195 µM (active) | 0.0803 µM (active) | < 0.01 µM (active) | < 0.0196 µM (active) | 0.183 µM (active) | 0.2 µM (active) | < 0.0267 µM (active)
O=C1OCC/C1=C/c1ccc(/N=N/c2c(O)ccc3ccccc23)cc1 | 26.7 µM (inactive) | 19.9 µM (inactive) | 18.2 µM (inactive) | 5.11 µM (inactive) | 20.7 µM (inactive) | 22.6 µM (inactive) | 28.6 µM (inactive) | 19.3 µM (inactive) | 29.5 µM (inactive) | 19.7 µM (inactive) | 24.8 µM (inactive) | 15.6 µM (inactive) | 24.8 µM (inactive) | 23.1 µM (inactive) | 25.3 µM (inactive) | 19.7 µM (inactive) | 50.2 µM (inactive) | 15.1 µM (inactive) | 27.2 µM (inactive) | 19.2 µM (inactive)
O=C(CSC1=NCCN1)c1ccccc1 | > 100 µM (inactive) | > 100 µM (inactive) | > 100 µM (inactive) | > 100 µM (inactive) | > 100 µM (inactive) | < 0.01 µM (active) | > 100 µM (inactive) | > 100 µM (inactive) | > 100 µM (inactive) | > 100 µM (inactive) | > 100 µM (inactive) | > 100 µM (inactive) | > 100 µM (inactive) | > 100 µM (inactive) | > 100 µM (inactive) | > 100 µM (inactive) | > 100 µM (inactive) | > 100 µM (inactive) | > 100 µM (inactive) | > 100 µM (inactive)
Nc1ccc(Oc2ccc(C3(c4ccc(Oc5ccc(N)cc5)cc4)C4CC5C6CC7CC5C3C(C7)C6C4)cc2)cc1 | 4.97 µM (inactive) | > 78 µM (inactive) | 12.1 µM (inactive) | 10.5 µM (inactive) | > 58.6 µM (inactive) | 14 µM (inactive) | 16 µM (inactive) | 5.4 µM (inactive) | 38.4 µM (inactive) | 21.1 µM (inactive) | 7.53 µM (inactive) | > 78.3 µM (inactive) | > 100 µM (inactive) | 19 µM (inactive) | 54.8 µM (inactive) | 39 µM (inactive) | 23.1 µM (inactive) | 4.01 µM (inactive) | 62.5 µM (inactive) | 97.3 µM (inactive)
CCc1nnc(-n2c(C)nc3cc(Cl)ccc3c2=O)s1 | 51.4 µM (inactive) | 40.9 µM (inactive) | 34.2 µM (inactive) | 38.5 µM (inactive) | 39.4 µM (inactive) | 41 µM (inactive) | 29 µM (inactive) | 47.3 µM (inactive) | 22.1 µM (inactive) | 40.5 µM (inactive) | 31.9 µM (inactive) | 16 µM (inactive) | 34.9 µM (inactive) | 35 µM (inactive) | 21.4 µM (inactive) | 80.9 µM (inactive) | 83 µM (inactive) | 39.9 µM (inactive) | 28.2 µM (inactive) | 34.8 µM (inactive)
